Results: PMC4769088, “Antifungal Activity and Action Mechanism of Histatin 5-Halocidin Hybrid Peptides against Candida ssp” (PLoS ONE, 2016)
Where two headings read alike, the source gives them in different places. Where a SMILES comes first, the peptide text is derived from it. Bridges are numbered along the chain shown (N, C = ends). Roman numbers before positions name the chains, in order. Where no end group is shown, it is not given here.

Experiments:
[1] = system: Candida albicans cells; experiment: Confocal microscopy localization and FITC-peptide/PI uptake assay; assay type: cell-based; settings: FITC-peptides and propidium iodide uptake assay, measured for 60 min
Procedure: To confirm the killing effect of the peptides, washed Candida cells (1 × 10^7 cells/ml) were treated with the peptides and propidium iodide (PI) was added. For energy depletion experiments, cells were pre-incubated with 10 mM NaPB containing 5 mM NaN3 at 30°C for 60 min before the addition of peptides. Propidium iodide (PI) uptake was measured using a multi reader and calculated with the formula [propidium iodide (PI) uptake value of peptide-treated cells—propidium iodide (PI) value of control cells] C. albicans cells were attached to concanavalin A (Sigma, 1 mg/ml solution in water) coated coverglass in chambered wells (Lab-Tek II). Cells (1 x 10^6) were deposited in each well, and 1 ml of 10 mM NaPB containing 5 μg PI (Sigma) and FITC-labeled peptides (Final concentration 10 μg/ml) were added to the chamber. Confocal images were acquired with an Olympus Fluoview FV10i-DOC (Olympus, Tokyo, Japan). ImageJ software was used for image acquisition and analysis.  Fig 5 Localizations of FITC-peptides in Candida albicans cells. C. albicans cells were incubated for 10 minutes with 10 μg/ml of FITC-peptides and visualized by confocal microscopy. […] FITC-peptides and PI uptake was measured for 60 min in Perkin Elmer 2030 reader (VictorX 3).

[2] = system: C.albicans CCARM 14022; assay type: cell-based, Candida albicans
Procedure: (§1) To determine the candidacidal activity of the peptides, we used Candida strains obtained from the Culture collection of antimicrobial resistant microbes at Seoul Women’s University in Korea. These included three Candida albicans (CCARM 14020, 14021, 14022), Candida guillermondi and Candida tropicalis. In addition, Candida albicans SC5413 was kindly provided by Dr Jeong-Yoon Kim at the Department of Microbiology & Molecular Biology, Chungnam University, Korea. Yeast were cultured overnight at 30°C in 10 ml of yeast extract-peptone-dextrose (YPD) broth (Qbiogene), then diluted in 10 ml of YPD broth to OD600 = 0.2 and grown for an additional 4 h with shaking at 30°C until OD600 = 0.8 in order to obtain mid-log phase cultures. The peptides (Hst 5, P113, HHP1, HHP2, PH1, PH2, di-PH1, di-PH2, WP1, di-WP2, di-15Hc and di-18Hc) in this study were synthesized by using standard solid-phase synthesis protocols and were purified by reversed-phase high-performance liquid chromatography at Anygen Inc. (Korea). FITC-labeled peptides (F-Hst5, F-P113, F-HHP1, F-di-PH2, F-di-WP2 and F-di-18Hc) were also synthesized by 6-aminohexnoic acid linker at Anygen (Korea) for confocal experiments.
(§2) The candidacidal activities of the peptides were tested by using standard microdilution plate assays, radial diffusion assays and broth dilution assay slightly modified from the procedure recommended by the National Committee for Clinical Laboratory Standards. For the candidacidal assays, C. albicans cells were grown in YPD medium and washed twice with 10 mM sodium phosphate buffer (NaPB; Na2HPO4, NaH2PO4, pH 7.4). The cells (1 x 10^6) were then mixed with different concentrations of peptides and incubated at 30°C with constant shaking for 60 min. For energy depletion experiments, cells were pre-incubated with 10 mM NaPB containing 5 mM NaN3 at 30°C for 60 min before the addition of peptides. The cell suspensions were diluted in 10 mM NaPB and aliquots of 500 cells were spread onto YPD agar plates then incubated for 24 h at 30°C to visualize the surviving colonies. Cell survival was expressed as a percentage of that for the control, and the loss of viability was calculated as [1 x (number of colonies from peptide-treated cells/number of colonies from control cells)] x 100. Candidacidal assays were performed in triplicate. For the radial diffusion assay, C. albicans cells were grown in YPD medium overnight and washed twice with 10 mM NaPB. Washed yeast-phase C. albicans cells (1 x 10^6 CFU) were trapped in thin underlay gels containing 9 mM sodium phosphate, 1 mM sodium citrate buffer, 1% (wt/vol) agarose (A6013; Sigma), and 0.3 mg of Sabouraud dextrose broth (Difco)/ml. After incubation at 37°C for 3 h, a 10 ml overlay gel of 1% agarose and 6% Sabouraud dextrose broth was poured on the underlay gel and then the plates were incubated overnight at 37°C. The clear-zone diameters were measured to the nearest 0.1 mm and graphed against the peptide concentration. Zone diameters were expressed in units (0.1 mm = 1 unit). For the broth dilution assay, the Candida strains were cultured in LYM broth for 18 h at 30°C. The numbers of yeasts were counted using a hemocytometer. Stock peptide solutions were prepared to a concentration of 320 μg/ml in distilled water, and were then serially diluted twofold, to 5 μg/ml. 100 μl aliquots of the diluted culture media containing candida cells (1 x 10^3) were dispensed into the wells of 96-well polypropylene microtiter plates (Costar 3879, Corning, NY), to which peptide solution (11 μl) was then added. In the experiments conducted to assess the candidacidal activity of peptides in the presence of salt, we used LYM supplemented with 150 mM NaCl for the culture medium, which was mixed with the peptide solution. The antifungal activities were evaluated after 24 h of incubation at 30°C by the observation of visible turbidity the wells. […]

[3] = system: C.albicans CCARM 14021; assay type: cell-based, Candida albicans
Procedure: as §1, §2

[4] = system: C.albicans SC5413; assay type: cell-based, Candida albicans
Procedure: as §1, §2

[5] = system: C.albicans CCARM 14020; assay type: cell-based, Candida albicans
Procedure: as §1, §2

[6] = system: C. tropicalis; experiment: Broth dilution assay (MIC); assay type: cell-based, Candida tropicalis
Procedure: as §1
The candidacidal activities of the peptides were tested by using standard microdilution plate assays, radial diffusion assays and broth dilution assay slightly modified from the procedure recommended by the National Committee for Clinical Laboratory Standards. For the candidacidal assays, C. albicans cells were grown in YPD medium and washed twice with 10 mM sodium phosphate buffer (NaPB; Na2HPO4, NaH2PO4, pH 7.4). The cells (1 x 10^6) were then mixed with different concentrations of peptides and incubated at 30°C with constant shaking for 60 min. For energy depletion experiments, cells were pre-incubated with 10 mM NaPB containing 5 mM NaN3 at 30°C for 60 min before the addition of peptides. The cell suspensions were diluted in 10 mM NaPB and aliquots of 500 cells were spread onto YPD agar plates then incubated for 24 h at 30°C to visualize the surviving colonies. Cell survival was expressed as a percentage of that for the control, and the loss of viability was calculated as [1 x (number of colonies from peptide-treated cells/number of colonies from control cells)] x 100. Candidacidal assays were performed in triplicate. For the radial diffusion assay, C. albicans cells were grown in YPD medium overnight and washed twice with 10 mM NaPB. […] The clear-zone diameters were measured to the nearest 0.1 mm and graphed against the peptide concentration. […] The numbers of yeasts were counted using a hemocytometer. […] The antifungal activities were evaluated after 24 h of incubation at 30°C by the observation of visible turbidity the wells. […]

[7] = NaCl 150 mM, LYM supplemented with 150 mM NaCl, 24 h at 30°C

In the case of C[C@H](NC(=O)[C@H](Cc1c[nH]cn1)NC(=O)[C@H](CO)NC(=O)[C@@H](N)CC(=O)O)C(=O)N[C@@H](CCCCN)C(=O)N[C@@H](CCCNC(=N)N)C(=O)N[C@@H](Cc1c[nH]cn1)C(=O)N[C@@H](Cc1c[nH]cn1)C(=O)NCC(=O)N[C@@H](Cc1ccc(O)cc1)C(=O)N[C@@H](CCCCN)C(=O)N[C@@H](CCCNC(=N)N)C(=O)N[C@@H](CCCCN)C(=O)N[C@@H](Cc1ccccc1)C(=O)N[C@@H](Cc1c[nH]cn1)C(=O)N[C@@H](CCC(=O)O)C(=O)N[C@@H](CCCCN)C(=O)N[C@@H](Cc1c[nH]cn1)C(=O)N[C@@H](Cc1c[nH]cn1)C(=O)N[C@@H](CO)C(=O)N[C@@H](Cc1c[nH]cn1)C(=O)N[C@@H](CCCNC(=N)N)C(=O)NCC(=O)N[C@@H](Cc1ccc(O)cc1)C(=O)O [Hst 5, Histatin 5], the “FITC intensity in Candida cells” value [1] was “increased in a time dependent manner”, the MICs ([2]; CCARM 14022, 24 h) was 8 to 16 µg/mL and the MICs [2, 7] was 32< μg/ml. For the same molecule, the MICs ([3]; CCARM 14021, 24 h) was 4 to 8 µg/mL, the MICs [3, 7] was 32< μg/ml and the MICs [4, 7] was 32< μg/ml. For the same molecule, the MICs ([4]; SC5413, 24 h) was 8 to 16 µg/mL, the MICs ([5]; CCARM 14020, 24 h) was 8 to 16 µg/mL and the MICs [5, 7] was 32< μg/ml.
For CC(C)C[C@H](NC(=O)CNC(=O)[C@H](Cc1c[nH]cn1)NC(=O)[C@H](Cc1c[nH]cn1)NC(=O)[C@H](CC(C)C)NC(=O)[C@H](CC(C)C)NC(=O)[C@H](C)NC(=O)[C@H](CC(N)=O)NC(=O)[C@H](CC(C)C)NC(=O)[C@@H](N)Cc1c[nH]c2ccccc12)C(=O)N[C@@H](CC(N)=O)C(=O)N[C@@H](CSSC[C@H](NC(=O)[C@H](CC(N)=O)NC(=O)[C@H](CC(C)C)NC(=O)CNC(=O)[C@H](Cc1c[nH]cn1)NC(=O)[C@H](Cc1c[nH]cn1)NC(=O)[C@H](CC(C)C)NC(=O)[C@H](CC(C)C)NC(=O)[C@H](C)NC(=O)[C@H](CC(N)=O)NC(=O)[C@H](CC(C)C)NC(=O)[C@@H](N)Cc1c[nH]c2ccccc12)C(=O)N[C@@H](C)C(=O)N[C@@H](CCCCN)C(=O)NCC(=O)N[C@H](C(=O)N[C@@H](CC(C)C)C(=O)N[C@@H](C)C(N)=O)C(C)C)C(=O)N[C@@H](C)C(=O)N[C@@H](CCCCN)C(=O)NCC(=O)N[C@H](C(=O)N[C@@H](CC(C)C)C(=O)N[C@@H](C)C(N)=O)C(C)C [di-18Hc, reference compound] (I: H-WLNALLHHGLNCAKGVLA-NH2 / II: H-WLNALLHHGLNCAKGVLA-NH2; disulfide I:12-II:12 (inferred); N-terminus assumed), the “killing activities against C. tropicalis in 150 mM NaCl salt” value (“killing activities against C. tropicalis” for short) [6] was “retained”.
In the case of CC(C)C[C@H](NC(=O)CNC(=O)[C@H](Cc1c[nH]cn1)NC(=O)[C@H](Cc1c[nH]cn1)NC(=O)[C@H](CCCNC(=N)N)NC(=O)[C@H](CCCCN)NC(=O)[C@H](C)N)C(=O)N[C@@H](CC(N)=O)C(=O)N[C@@H](CSSC[C@H](NC(=O)[C@H](CC(N)=O)NC(=O)[C@H](CC(C)C)NC(=O)CNC(=O)[C@H](Cc1c[nH]cn1)NC(=O)[C@H](Cc1c[nH]cn1)NC(=O)[C@H](CCCNC(=N)N)NC(=O)[C@H](CCCCN)NC(=O)[C@H](C)N)C(=O)N[C@@H](C)C(=O)N[C@@H](CCCCN)C(=O)N[C@@H](Cc1ccccc1)C(=O)N[C@@H](Cc1c[nH]cn1)C(N)=O)C(=O)N[C@@H](C)C(=O)N[C@@H](CCCCN)C(=O)N[C@@H](Cc1ccccc1)C(=O)N[C@@H](Cc1c[nH]cn1)C(N)=O [di-PH2] (I: H-AKRHHGLNCAKFH-NH2 / II: H-AKRHHGLNCAKFH-NH2; disulfide I:9-II:9 (inferred); N-terminus assumed), the “killing activities against C. tropicalis” value [6] was “retained”, the “increase in MIC against C. tropicalis at 150 mM salt” value ([6]; 150 mM NaCl versus no salt) was 2 fold and the “FITC intensity in Candida cells” value [1] was “increased in a time dependent manner”. The MICs ([2]; CCARM 14022, 24 h) was 2 to 4 µg/mL, the MICs [2, 7] was 32< μg/ml and the MICs ([3]; CCARM 14021, 24 h) was 1 to 2 µg/mL. For the same molecule, the MICs [3, 7] was 32< μg/ml, the MICs [4, 7] was 32< μg/ml and the MICs ([4]; SC5413, 24 h) was 1 to 2 µg/mL. For the same molecule, the MICs ([5]; CCARM 14020, 24 h) was 1 to 2 µg/mL and the MICs [5, 7] was 32< μg/ml.
For CC(C)C[C@H](NC(=O)[C@@H](N)Cc1c[nH]c2ccccc12)C(=O)N[C@@H](CC(N)=O)C(=O)N[C@@H](C)C(=O)N[C@@H](CCCCN)C(=O)N[C@@H](CCCNC(=N)N)C(=O)N[C@@H](Cc1c[nH]cn1)C(=O)N[C@@H](Cc1c[nH]cn1)C(=O)NCC(=O)N[C@@H](Cc1ccc(O)cc1)C(=O)N[C@@H](CCCCN)C(=O)N[C@@H](CSSC[C@H](NC(=O)[C@H](CCCCN)NC(=O)[C@H](Cc1ccc(O)cc1)NC(=O)CNC(=O)[C@H](Cc1c[nH]cn1)NC(=O)[C@H](Cc1c[nH]cn1)NC(=O)[C@H](CCCNC(=N)N)NC(=O)[C@H](CCCCN)NC(=O)[C@H](C)NC(=O)[C@H](CC(N)=O)NC(=O)[C@H](CC(C)C)NC(=O)[C@@H](N)Cc1c[nH]c2ccccc12)C(=O)N[C@@H](CCCCN)C(=O)N[C@@H](Cc1ccccc1)C(=O)N[C@@H](Cc1c[nH]cn1)C(N)=O)C(=O)N[C@@H](CCCCN)C(=O)N[C@@H](Cc1ccccc1)C(=O)N[C@@H](Cc1c[nH]cn1)C(N)=O [di-WP2] (I: H-WLNAKRHHGYKCKFH-NH2 / II: H-WLNAKRHHGYKCKFH-NH2; disulfide I:12-II:12 (inferred); N-terminus assumed), the “killing activities against C. tropicalis” value [6] was “retained”.
With AKRHHGYKRKFH-NH2 [P113] the “FITC intensity in Candida cells” value [1] was “increased in a time dependent manner”, the MICs ([2]; CCARM 14022, 24 h) was 8 to 16 µg/mL and the MICs [2, 7] was 32< μg/ml. The MICs ([3]; CCARM 14021, 24 h) was 4 to 8 µg/mL, the MICs [3, 7] was 32< μg/ml and the MICs [4, 7] was 32< μg/ml. The MICs ([4]; SC5413, 24 h) was 4 to 8 µg/mL, the MICs ([5]; CCARM 14020, 24 h) was 4 to 8 µg/mL and the MICs [5, 7] was 32< μg/ml.
